According to patent US20260285850A1, “SUBSTITUTED OXAZOLIDINONES AND IMIDAZOLINONES AS HERBICIDES” (FMC CORPORATION, priority 2023, published 2026):

Columns and labels:
Assay type in all cases: in vivo
[1] = system: barnyardgrass (Echinochloa crus-galli); assay: Test A preemergence soil spray, visual injury rating 0-100; details: 10 days, 0 = no effect, 100 = complete control
Excerpt: (§1) Seeds of plant species selected from barnyardgrass (Echinochloa crus-galli), blackgrass (Alopecurus myosuroides), corn (Zea mays), foxtail, giant (giant foxtail, Setaria faberi), green foxtail (Setaria viridis), goosegrass (Eleusine indica), kochia (Bassia scoparia), oat, wild (wild oat, Avena fatua), palmer (palmer amaranth, palmer pigweed, Amaranthus palmeri), ragweed (common ragweed, Ambrosia artemisiifolia), ryegrass, Italian (italian ryegrass, Lolium multiflorum), soybean (Glycine max) and wheat (Triticum aestivum) were planted into a blend of loam soil and sand and treated preemergence with a directed soil spray using test chemicals formulated in a non-phytotoxic solvent mixture which included a surfactant.
(§2) At the same time, plants selected from these crops and weed species and also galium (catchweed bedstraw, Galium aparine) and horseweed (Erigeron canadensis) were planted in pots containing the same blend of loam soil and sand and treated with postemergence applications of test chemicals formulated in the same manner. Plants ranged in height from 2 to 10 cm and were in the one- to two-leaf stage for the postemergence treatment. Treated plants and untreated controls were maintained in a greenhouse for 10 days, after which time all treated plants were compared to untreated controls and visually evaluated for injury. Plant response ratings, summarized in Table A, are based on a 0 to 100 scale where 0 is no effect and 100 is complete control. A dash (-) response means no test result.

[2] = system: blackgrass (Alopecurus myosuroides); assay: as above; details: 10 days, 0 = no effect, 100 = complete control
Excerpt: as §1, §2

[3] = system: corn (Zea mays); assay: as above; details: 10 days, 0 = no effect, 100 = complete control
Excerpt: as §1, §2

[4] = system: green foxtail (Setaria viridis); assay: as above; details: 10 days, 0 = no effect, 100 = complete control
Excerpt: as §1, §2

[5] = system: kochia (Bassia scoparia); assay: as above; details: 10 days, 0 = no effect, 100 = complete control
Excerpt: as §1, §2

[6] = system: oat, wild (wild oat, Avena fatua); assay: as above; details: 10 days, 0 = no effect, 100 = complete control
Excerpt: as §1, §2

[7] = system: palmer (palmer amaranth, palmer pigweed, Amaranthus palmeri); assay: as above; details: 10 days, 0 = no effect, 100 = complete control
Excerpt: as §1, §2

[8] = system: ragweed (common ragweed, Ambrosia artemisiifolia); assay: as above; details: 10 days, 0 = no effect, 100 = complete control
Excerpt: as §1, §2

[9] = system: ryegrass, Italian (italian ryegrass, Lolium multiflorum); assay: as above; details: 10 days, 0 = no effect, 100 = complete control
Excerpt: as §1, §2

[10] = system: soybean (Glycine max); assay: as above; details: 10 days, 0 = no effect, 100 = complete control
Excerpt: as §1, §2

[11] = system: wheat (Triticum aestivum); assay: as above; details: 10 days, 0 = no effect, 100 = complete control
Excerpt: as §1, §2

[12] = system: barnyardgrass (Echinochloa crus-galli); assay: Test A postemergence application, visual injury rating 0-100; details: 10 days
Excerpt: as §1, §2

[13] = system: blackgrass (Alopecurus myosuroides); assay: as above; details: 10 days
Excerpt: as §1, §2

[14] = system: corn (Zea mays); assay: as above; details: 10 days
Excerpt: as §1, §2

[15] = system: green foxtail (Setaria viridis); assay: as above; details: 10 days
Excerpt: as §1, §2

[16] = system: horseweed (Erigeron canadensis); assay: as above; details: 10 days
Excerpt: as §1, §2

[17] = system: kochia (Bassia scoparia); assay: as above; details: 10 days
Excerpt: as §1, §2

[18] = system: oat, wild (wild oat, Avena fatua); assay: as above; details: 10 days
Excerpt: as §1, §2

[19] = system: palmer (palmer amaranth, palmer pigweed, Amaranthus palmeri); assay: as above; details: 10 days
Excerpt: as §1, §2

[20] = system: ragweed (common ragweed, Ambrosia artemisiifolia); assay: as above; details: 10 days
Excerpt: as §1, §2

[21] = system: ryegrass, Italian (italian ryegrass, Lolium multiflorum); assay: as above; details: 10 days
Excerpt: as §1, §2

[22] = system: soybean (Glycine max); assay: as above; details: 10 days
Excerpt: as §1, §2

[23] = system: wheat (Triticum aestivum); assay: as above; details: 10 days
Excerpt: as §1, §2

[24] = system: barnyardgrass (Echinochloa crusgalli); assay: Test B flooded paddy test, visual plant response rating 0-100; details: 250 g ai/ha, Flood, applied to paddy water, evaluated after 13 days
Method: (§3) Plant species in the flooded paddy test selected from barnyardgrass (Echinochloa crusgalli), ducksalad (Heteranthera limosa), rice (Oryza sativa), and sedge, umbrella (small-flower umbrella sedge, Cyperus difformis) were grown to the 2-leaf stage for testing. At time of treatment, test pots were flooded to 3 cm above the soil surface, treated by application of test compounds directly to the paddy water, and then maintained at that water depth for the duration of the test. Treated plants and controls were maintained in a greenhouse for 13 days, after which time all species were compared to controls and visually evaluated. […] A dash (-) response means no test result.

[25] = system: ducksalad (Heteranthera limosa); assay: as above; details: 250 g ai/ha, Flood, applied to paddy water, evaluated after 13 days
Method: as §3

[26] = system: rice (Oryza sativa); assay: as above; details: 250 g ai/ha, Flood, applied to paddy water, evaluated after 13 days
Method: as §3

[27] = system: sedge, umbrella (small-flower umbrella sedge, Cyperus difformis); assay: as above; details: 250 g ai/ha, Flood, applied to paddy water, evaluated after 13 days
Method: as §3

[28] = 31 g ai/ha, postemergence, 0 = no effect, 100 = complete control
[29] = Postemergence, 125 g ai/ha, 0 is no effect, 100 is complete control

## COC(=O)C1=CC[C@H](NC(=O)C2(C)CN(c3cc(F)cc(F)c3)C(=O)O2)C1 (mixture of isomers) [Compound 37, Methyl (4S)-4-[[[3-(3,5-difluorophenyl)-5-methyl-2-oxo-5-oxazolidinyl]carbonyl]amino]-1-cyclopentene-1-carboxylate]
[1]; 31 g ai/ha
  Barnyardgrass plant response rating (0-100): 30
[1]; 125 g ai/ha
  Barnyardgrass plant response rating (0 to 100 scale): 90
[2]; 31 g ai/ha
  Blackgrass plant response rating (0-100): 0
[2]; 125 g ai/ha
  Blackgrass plant response rating (0 to 100 scale): 20
[3]; 31 g ai/ha
  Corn plant response rating (0-100): 10
[3]; 125 g ai/ha
  Corn plant response rating (0 to 100 scale): 80
[4]; 31 g ai/ha
  Foxtail, Green plant response rating (0-100): 0
[4]; 125 g ai/ha
  Foxtail, Green plant response rating (0 to 100 scale): 90
[5]; 31 g ai/ha
  Kochia plant response rating (0-100): 0
[5]; 125 g ai/ha
  Kochia plant response rating (0 to 100 scale): 20
[6]; 31 g ai/ha
  Oat, Wild plant response rating (0-100): 20
[6]; 125 g ai/ha
  Oat, Wild plant response rating (0 to 100 scale): 60
[7]; 31 g ai/ha
  Amaranth, Palmer plant response rating (0-100): 10
[7]; 125 g ai/ha
  Amaranth, Palmer plant response rating (0 to 100 scale): 80
[8]; 31 g ai/ha
  Ragweed plant response rating (0-100): 60
[8]; 125 g ai/ha
  Ragweed plant response rating (0 to 100 scale): 0
[9]; 31 g ai/ha
  Ryegrass, Italian plant response rating (0-100): 70
[9]; 125 g ai/ha
  Ryegrass, Italian plant response rating (0 to 100 scale): 90
[10]; 31 g ai/ha
  Soybean plant response rating (0-100): 10
[10]; 125 g ai/ha
  Soybean plant response rating (0 to 100 scale): 70
[11]; 31 g ai/ha
  Wheat plant response rating (0-100): 40
[11]; 125 g ai/ha
  Wheat plant response rating (0 to 100 scale): 80
[12]; [28]
  Barnyardgrass plant response rating (0-100): 100
[12]; [29]
  Barnyardgrass plant response rating (0 to 100 scale): 100
[13]; [28]
  Blackgrass plant response rating (0-100): 80
[13]; [29]
  Blackgrass plant response rating (0 to 100 scale): 90
[14]; [28]
  Corn plant response rating (0-100): 100
[14]; [29]
  Corn plant response rating (0 to 100 scale): 100
[15]; [28]
  Foxtail, Green plant response rating (0-100): 90
[15]; [29]
  Foxtail, Green plant response rating (0 to 100 scale): 90
[16]; [28]
  Horseweed plant response rating (0-100): 10
[16]; [29]
  Horseweed plant response rating (0 to 100 scale): 70
[17]; [28]
  Kochia plant response rating (0-100): 80
[17]; [29]
  Kochia plant response rating (0 to 100 scale): 80
[18]; [28]
  Oat, Wild plant response rating (0-100): 90
[18]; [29]
  Oat, Wild plant response rating (0 to 100 scale): 90
[19]; [28]
  Amaranth, Palmer plant response rating (0-100): 70
[19]; [29]
  Amaranth, Palmer / Pigweed, Palmer plant response rating (0 to 100 scale): 90
[20]; [28]
  Ragweed plant response rating (0-100): 20
[20]; [29]
  Ragweed plant response rating (0 to 100 scale): 50
[21]; [28]
  Ryegrass, Italian plant response rating (0-100): 80
[21]; [29]
  Ryegrass, Italian plant response rating (0 to 100 scale): 90
[22]; [28]
  Soybean plant response rating (0-100): 70
[22]; [29]
  Soybean plant response rating (0 to 100 scale): 80
[23]; [28]
  Wheat plant response rating (0-100): 90
[23]; [29]
  Wheat plant response rating (0 to 100 scale): 90
[24]
  Plant response rating, Barnyardgrass (0 to 100 scale, 0 is no effect and 100 is complete control): 75
[25]
  Plant response rating, Ducksalad (0 to 100 scale, 0 is no effect and 100 is complete control): 95
[26]
  Plant response rating, Rice (0 to 100 scale, 0 is no effect and 100 is complete control): 65
[27]
  Plant response rating, Sedge, Umbrella (0 to 100 scale, 0 is no effect and 100 is complete control): 100
